Source: patent US11667602B2, “Compounds and their use” (AstraZeneca AB, priority 2020, dated 2023)
In brackets after ≈: the same amount, converted by molar mass.

Experiments:
Solubility (Test F) = type: physicochemical; conditions: arithmetic mean if run multiple times
Method: The assay was conducted according to the Solubility Assay described in pages 164-167 of Wernevik, J. et al., “A Fully Integrated Assay Panel for Early Drug Metabolism and Pharmacokinetics Profiling”, Assay and Drug Development Technologies, 2020, 18(4), 157-179. Data are reported in Table 36 as solubility ([…]. Where the assay was run multiple times for the same compound, the arithmetic mean is reported.

[1] = Human Liver Microsomal Stability (Test C); type: in vitro ADME; conditions: human, liver microsomes
Method: Human Liver Microsomal Stability (Test C)
The assay was conducted according to the Human Liver Microsome Stability Assay described in pages 170-174 of Wernevik, J. et al., “A Fully Integrated Assay Panel for Early Drug Metabolism and Pharmacokinetics Profiling”, Assay and Drug Development Technologies, 2020, 18(4), 157-179. Data are reported in Table 36 as CLint (μl/min/mg protein). Where the assay was run multiple times for the same compound, the arithmetic mean is reported.

[2] = Human Plasma Protein Binding (Test B); type: in vitro ADME; conditions: fraction unbound (fu)
Method: Human Plasma Protein Binding (Test B)
The assay was conducted according to the Human Plasma Protein Binding Assay described in pages 167-170 of Wernevik, J. et al., “A Fully Integrated Assay Panel for Early Drug Metabolism and Pharmacokinetics Profiling”, Assay and Drug Development Technologies, 2020, 18(4), 157-179. Data are reported in Table 36 as fraction unbound (fu) (% free). Where the assay was run multiple times for the same compound, the arithmetic mean is reported.

[3] = Rat Hepatocyte Stability (Test E); type: in vitro ADME; conditions: rat, hepatocytes, geometric mean if run multiple times
Method: Rat Hepatocyte Stability (Test E)
The assay was conducted according to the Rat Hepatocyte Stability Assay described in pages 170-174 of Wernevik, J. et al., “A Fully Integrated Assay Panel for Early Drug Metabolism and Pharmacokinetics Profiling”, Assay and Drug Development Technologies, 2020, 18(4), 157-179. Data are reported in Table 36 as mean Clint(μl/min/10^6 cells). Where the assay was run multiple times for the same compound, the geometric mean is reported.

human RXFP1 = target: T1, human RXFP1 (Homo sapiens, UniProt Q9HBX9); assay: RXFP1 Hu cAMP (Test A); type: cell-based; parameters: expressed in transfected cells; host or cells: Jump-In T-REx CHO-K1 cells (ThermoFisher), induced with 10 ng/ml doxycycline for 24 h; conditions: RXFP1 Hu cAMP; for EC50: read-out: Test A EC50
T1 sequence (Q9HBX9 1-757): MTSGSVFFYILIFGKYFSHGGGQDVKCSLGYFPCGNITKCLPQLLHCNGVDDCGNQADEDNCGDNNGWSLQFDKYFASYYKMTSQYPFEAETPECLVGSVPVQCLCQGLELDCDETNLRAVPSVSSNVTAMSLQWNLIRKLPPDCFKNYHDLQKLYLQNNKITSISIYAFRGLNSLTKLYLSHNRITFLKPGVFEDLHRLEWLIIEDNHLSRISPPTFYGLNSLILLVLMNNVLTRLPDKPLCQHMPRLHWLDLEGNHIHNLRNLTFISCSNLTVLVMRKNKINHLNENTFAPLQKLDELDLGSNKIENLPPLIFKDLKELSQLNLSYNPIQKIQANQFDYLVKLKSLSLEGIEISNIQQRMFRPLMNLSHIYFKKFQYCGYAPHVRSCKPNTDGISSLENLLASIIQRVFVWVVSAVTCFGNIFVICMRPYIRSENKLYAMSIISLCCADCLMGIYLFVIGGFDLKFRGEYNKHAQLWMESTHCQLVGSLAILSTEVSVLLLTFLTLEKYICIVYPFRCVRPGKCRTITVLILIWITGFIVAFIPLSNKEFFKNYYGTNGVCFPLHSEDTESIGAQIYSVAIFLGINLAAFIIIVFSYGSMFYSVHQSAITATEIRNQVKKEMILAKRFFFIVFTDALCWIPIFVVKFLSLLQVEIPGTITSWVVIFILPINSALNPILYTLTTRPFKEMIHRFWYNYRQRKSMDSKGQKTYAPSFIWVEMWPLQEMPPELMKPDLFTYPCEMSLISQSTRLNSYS
How it was run: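 CHO-K1 (Jump-In T-REx), RXFP1 induced w/ 10 ng/ml doxycycline 24 h, cryopreserved. 0.5 mM IBMX final. cAMP by HTRF, 2 h RT, std curve.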

Row | solubility (Solubility (Test F)) | microsomal CLint [1] | Test B Human Plasma Protein Binding (% free) [2] | hepatocyte CLint [3] | Test A Sinf (human RXFP1) | EC50 (human RXFP1) | SMILES
1 | 920 µM (≈ 548 µg/mL) | 59 µL/min/mg | 6.4 % free | 28 µL/min/1e6 cells | 122% | 270 nM | CCOCC1(CNC(=O)[C@H]2[C@@H]3CC[C@@H](C3)[C@H]2NC(=O)c2cc(O[C@H]3CC[C@@](C)(C(=O)O)CC3)c(C#N)cc2OC)CCC1 [Example 104]
2 | 780 µM (≈ 426 µg/mL) | < 3 µL/min/mg | 50 % free | 17 µL/min/1e6 cells |  | > 5000 nM | COc1cc(C#N)c(O[C@H]2CC[C@@](C)(C(=O)O)CC2)cc1C(=O)N[C@@H]1[C@H]2CC[C@H](C2)[C@@H]1C(=O)NC[C@H](F)CO [Example 89]
3 | 400 µM (≈ 251 µg/mL) | 27 µL/min/mg | 1.2 % free | 49 µL/min/1e6 cells | 105% |  | COc1cc(F)c(O[C@H]2CC[C@@H](C(=O)O)CC2)cc1C(=O)N[C@@H]1[C@H]2CC[C@H](C2)[C@@H]1C(=O)Nc1cccc(OC(F)(F)F)c1F [Example 18]
4 | 60 µM (≈ 36.8 µg/mL) | < 3 µL/min/mg | 1.9 % free | < 1 µL/min/1e6 cells |  | > 50000 nM | COc1cc(F)c(O[C@H]2CC[C@@H](C(=O)O)CC2)cc1C(=O)N[C@@H]1[C@H](C(=O)Nc2ccc(F)c(C(F)(F)F)c2)[C@@H]2CC[C@H]1O2 [Example 50, (1S,4s)-4-(2-Fluoro-5-(((1R,2R,3S,4S)-3-((4-fluoro-3-(trifluoromethyl)phenyl)carbamoyl)-7-oxabicyclo[2.2.1]heptan-2-yl)carbamoyl)-4-methoxyphenoxy)cyclohexane-1-carboxylic acid]
5 | 920 µM (≈ 523 µg/mL) | < 3 µL/min/mg | 50 % free | 15 µL/min/1e6 cells |  | > 9400 nM | COc1cc(C#N)c(O[C@H]2CC[C@@](C)(C(=O)O)CC2)cc1C(=O)N[C@@H]1[C@H]2CC[C@H](C2)[C@@H]1C(=O)NCC(=O)NC(C)C [Example 85]
6 | 790 µM (≈ 428 µg/mL) | < 3 µL/min/mg | 47 % free | 12 µL/min/1e6 cells | 100% | 41000 nM | COc1cc(C#N)c(O[C@H]2CC[C@@](C)(C(=O)O)CC2)cc1C(=O)N[C@@H]1[C@H]2CC[C@H](C2)[C@@H]1C(=O)NCC(C)(C)O [Example 76]
7 | > 1000 µM | 31 µL/min/mg | 0.30 % free | 12 µL/min/1e6 cells | 114% | 34 nM | COc1cc(F)c(-c2ccc3c(c2)OC[C@@H]3CC(=O)O)cc1C(=O)N[C@@H]1[C@H]2CC[C@H](C2)[C@@H]1C(=O)Nc1cccc(S(=O)(=O)C(F)(F)F)c1 [Example 254]
8 | 1000 µM (≈ 549 µg/mL) | < 3 µL/min/mg | 13 % free | 18 µL/min/1e6 cells | 96% | 380 nM | COc1cc(F)c(O[C@H]2CC[C@@](C)(C(=O)O)CC2)cc1C(=O)N[C@@H]1[C@H]2CC[C@H](C2)[C@@H]1C(=O)NCC1(CF)CC1 [Example 48]
9 | 920 µM (≈ 524 µg/mL) | 8.4 µL/min/mg | 12 % free | 32 µL/min/1e6 cells | 122% | 140 nM | COc1cc(C#N)c(O[C@H]2CC[C@@](C)(C(=O)O)CC2)cc1C(=O)N[C@@H]1[C@H]2CC[C@H](C2)[C@@H]1C(=O)NCC1(F)CCCC1 [Example 92]
10 | 580 µM (≈ 336 µg/mL) | 15 µL/min/mg | 0.41 % free | 21 µL/min/1e6 cells | 105% | 250 nM | COc1cc(F)c(O[C@H]2CC[C@@H](C(=O)O)CC2)cc1C(=O)N[C@@H]1[C@H]2CC[C@H](C2)[C@@H]1C(=O)Nc1cc(F)c(F)c(F)c1 [Example 187]
11 | 980 µM (≈ 596 µg/mL) | 28 µL/min/mg | 0.74 % free | 63 µL/min/1e6 cells | 102% | 48 nM | COc1cc(F)c(O[C@H]2CC[C@@H](C(=O)O)CC2)cc1C(=O)N[C@@H]1[C@H]2CC[C@H](C2)[C@@H]1C(=O)Nc1cccc(OC(F)(F)F)c1 [Example 20]
12 | 850 µM (≈ 457 µg/mL) | 11 µL/min/mg | 12 % free | 18 µL/min/1e6 cells | 114% | 220 nM | COc1cc(C#N)c(O[C@H]2CC[C@@](C)(C(=O)O)CC2)cc1C(=O)N[C@@H]1[C@H]2CC[C@H](C2)[C@@H]1C(=O)N[C@H]1C[C@@H](C)C1 [Example 73]
13 | 250 µM (≈ 145 µg/mL) | 130 µL/min/mg | 1.6 % free | 25 µL/min/1e6 cells | 111% | 17 nM | CCCC1(CNC(=O)[C@H]2[C@@H]3CC[C@@H](C3)[C@H]2NC(=O)c2cc(O[C@H]3CC[C@@](C)(C(=O)O)CC3)c(C#N)cc2OC)CCC1 [Example 83]
14 | 690 µM (≈ 390 µg/mL) | 20 µL/min/mg | 6.7 % free | 24 µL/min/1e6 cells | 109% | 110 nM | COc1cc(C#N)c(O[C@H]2CC[C@@](C)(C(=O)O)CC2)cc1C(=O)N[C@@H]1[C@H]2CC[C@H](C2)[C@@H]1C(=O)NCC1CC(C)(C)C1 [Example 87]
15 | 840 µM (≈ 434 µg/mL) | 7.6 µL/min/mg | 11 % free | 11 µL/min/1e6 cells |  |  | COc1cc(F)c(O[C@H]2C[C@@](C)(C(=O)O)C2)cc1C(=O)N[C@@H]1[C@H]2CC[C@H](C2)[C@@H]1C(=O)NCC1(C)CCC1 [Example 149, (1S,3s)-3-(2-fluoro-4-methoxy-5-(((1S,2R,3S,4R)-3-(((1-methylcyclobutyl)methyl)carbamoyl)bicyclo[2.2.1]heptan-2-yl)carbamoyl)phenoxy)-1-methylcyclobutane-1-carboxylic acid]

Row | SMILES | solubility (Solubility (Test F)) | microsomal CLint [1] | Test B Human Plasma Protein Binding (% free) [2] | hepatocyte CLint [3] | Test A Sinf (human RXFP1) | EC50 (human RXFP1)
16 | COc1cc(F)c(C[C@H]2CC[C@@](C)(C(=O)O)CC2)cc1C(=O)N[C@@H]1[C@H]2CC[C@H](C2)[C@@H]1C(=O)NCC1(C)CCC1 [Example 204, (1S,4s)-4-(2-fluoro-4-methoxy-5-(((1S,2R,3S,4R)-3-(((1-methylcyclobutyl)methyl)carbamoyl)bicyclo[2.2.1]heptan-2-yl)carbamoyl)benzyl)-1-methylcyclohexane-1-carboxylic acid] | 61 µM (≈ 33.1 µg/mL) | 78 µL/min/mg | 0.29 % free | 18 µL/min/1e6 cells |  | 
17 | COc1cc(F)c(CC2CCC(C)(C(=O)O)CC2)cc1C(=O)NC1C2CCC(C2)C1C(=O)NCC1(C)CCC1 [Example 205, (1R,4r)-4-(2-fluoro-4-methoxy-5-(((1S,2R,3S,4R)-3-(((1-methylcyclobutyl)methyl)carbamoyl)bicyclo[2.2.1]heptan-2-yl)carbamoyl)benzyl)-1-methylcyclohexane-1-carboxylic acid] | 180 µM (≈ 97.7 µg/mL) | 49 µL/min/mg | 0.58 % free | 26 µL/min/1e6 cells |  | 
